The source of these data is BindingDB's records for doi:10.1021/acs.jmedchem.0c01420 (Ochanomizu University, 2021).

The term EC50 denotes the concentration that produces a half-maximal response.

The nature of this test: Agonist activity at VDR in human HL-60 cells assessed as induction of cell differentiation of promyelocytes to monocytes after 4 days by NBT reduction assay.

Turning to `C[C@H](CCC(=O)O)[C@H]1CC[C@H]2[C@@H]3CC[C@@H]4C[C@@H](CC(C)(C)O)CC[C@]4(C)[C@H]3CC[C@]12C`, the EC50 worked out at 0.036 µM.

Take `C[C@H](CCC(=O)O)[C@H]1CC[C@H]2[C@@H]3CC[C@@H]4C[C@H](CC(C)(C)O)CC[C@]4(C)[C@H]3CC[C@]12C`: the EC50 is 0.00053 µM.
